Experimental data published in patent publication US10981899B2, “Inhibitors of soluble adenylyl cyclase” (CORNELL UNIVERSITY, priority 2016, dated 2021).

Assays:
MEFs = assay: CellTiter-Glo cytotoxicity assay; type: cell-based, mouse
Method: Cell viability, as determined by CellTiter-Glo, is shown as luminescence; values are averages of triplicate determinations ±S.E.M. of a representative experiment repeated at least two times. […] Data represent single measurements of a representative experiment repeated at least two times.
(§1) The next day, compounds were added (ten concentrations), and the plates were incubated for 24 or 48 hrs at 37° C./5% CO2, and viability was quantified by measuring cellular ATP using luminescence (CellTiter-Glo®, Promega, Madison, Wis., USA) or viability based upon amount of DNA (CyQUANT®, ThermoFisher).

[1] = CyQUANT cell proliferation/viability assay; type: cell-based
Method: as §1

mouse brain mitochondria = assay: Membrane potential in isolated mouse brain mitochondria (uncoupling); conditions: 50 and 100 μM LRE1, 50 μM KH7
human sACt protein [2] = molecular target: T1, human sACt protein (Homo sapiens (Human), UniProt Q96PN6); assay: Primary high-throughput screen for sAC inhibitors (RF-MSS cyclase assay); type: biochemical; conditions: screened at 10 μM; 1 mM ATP, 5 mM MgCl2, 5 mM CaCl2, 40 mM NaHCO3
Method: This instrument also includes a Zymark Twister® robotic arm that handles microtiter plates and a purification SPE system. 35 μl of sample was aspirated from each well of a 384-well reaction microtiter plate and then injected onto a graphitized carbon SPE column extraction cartridge, washing with aqueous alkaline buffer and eluting it in an alkaline/organic solvent, onto the electrospray-MS, where the mass spectra of each sample was collected. The RapidFire sipper was washed between sample injections using organic (25% acetonitrile, 25% acetone in 5 mM ammonium acetate, pH 10) and aqueous (5 mM ammonium acetate, pH 10) solvents. RapidFire mass spectrometry screening data were processed and analyzed using Agilent MassHunter Software.
The primary screen was performed in polystyrene 384-well microplates (Greiner Bio One International AG). […] The reagents were dispensed using a liquid handling instrument Multidrop™ Combi Assay buffer (50 mM Tris pH 7.5, 5 mM CaCl2, 5 mM MgCl2, 40 mM NaHCO3, 2 mM DTT) was added first on the 384-well plate (Greiner Bio-One) followed by the compounds. The small molecule compounds were dispensed with a nanohead containing a 384-well array of Norgren Kloehn nanosyringes, and each plate was bar-coded. The human sACt protein was added next followed by the remainder of the assay buffer. […]

human sACt protein [3] = molecular target: T1, human sACt protein; assay: RF-MSS in vitro cyclase assay, concentration-response
Method: To avoid assay dependent artifacts, reproducibility and concentration-dependency were simultaneously assessed in the RF-MSS cyclase assay as well as in an independent colorimetric competitive enzyme immunoassay (i.e., ELISA-based Correlate-EIA Direct cAMP Assay). […] This instrument also includes a Zymark Twister® robotic arm that handles microtiter plates and a purification SPE system. 35 μl of sample was aspirated from each well of a 384-well reaction microtiter plate and then injected onto a graphitized carbon SPE column extraction cartridge, washing with aqueous alkaline buffer and eluting it in an alkaline/organic solvent, onto the electrospray-MS, where the mass spectra of each sample was collected. The RapidFire sipper was washed between sample injections using organic (25% acetonitrile, 25% acetone in 5 mM ammonium acetate, pH 10) and aqueous (5 mM ammonium acetate, pH 10) solvents. RapidFire mass spectrometry screening data were processed and analyzed using Agilent MassHunter Software.

sAC = sAC (Homo sapiens (Human), UniProt Q96PN6); assay: ELISA-based Correlate-EIA Direct cAMP Assay of in vitro sAC activity
sAC, sequence (Q96PN6 1-469): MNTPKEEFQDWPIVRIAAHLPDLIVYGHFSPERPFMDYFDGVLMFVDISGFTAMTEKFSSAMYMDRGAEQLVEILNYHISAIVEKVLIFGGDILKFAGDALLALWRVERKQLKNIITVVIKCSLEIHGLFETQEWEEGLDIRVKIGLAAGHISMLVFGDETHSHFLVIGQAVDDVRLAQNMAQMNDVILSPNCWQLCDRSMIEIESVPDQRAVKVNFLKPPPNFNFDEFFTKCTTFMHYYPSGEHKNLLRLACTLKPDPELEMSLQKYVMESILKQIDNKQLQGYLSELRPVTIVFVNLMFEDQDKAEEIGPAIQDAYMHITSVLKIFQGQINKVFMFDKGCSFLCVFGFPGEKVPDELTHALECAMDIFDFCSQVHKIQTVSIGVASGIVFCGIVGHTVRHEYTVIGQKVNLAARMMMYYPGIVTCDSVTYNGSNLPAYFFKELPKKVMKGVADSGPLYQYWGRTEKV
From the text: To avoid assay dependent artifacts, reproducibility and concentration-dependency were simultaneously assessed in the RF-MSS cyclase assay as well as in an independent colorimetric competitive enzyme immunoassay (i.e., ELISA-based Correlate-EIA Direct cAMP Assay).

T1 sequence (Q96PN6 1-469): as above

| mitochondrial uncoupling (mouse brain mitochondria) | Primary Screen (% NPI) (human sACt protein [2]) | IC50 (human sACt protein [3]) | IC50 (sAC) | Compound | toxicity (CellTiter-Glo) (MEFs; 2 days in culture, WT MEFs, KH7 at low μM, LRE1 up to 50 μM) | toxicity (CellTiter-Glo) (MEFs; single day in culture) | toxicity (CyQUANT) ([1]; second day) | toxicity (CyQUANT) ([1]; single day) |
| --- | --- | --- | --- | --- | --- | --- | --- | --- |
| uncoupling effect |  |  |  | CC(Sc1nc2ccccc2[nH]1)C(=O)N/N=C/c1cc(Br)ccc1O (centres unmarked) [KH7] | toxic | neither compound exhibited significant toxicity | toxic at low μM concentrations | neither LRE1 nor KH7 were toxic |
|  | 58.1 % NPI | > 20 µM | > 20 µM | Cc1cccc(-n2nc(S)sc2=S)c1 [RU-0207328] |  |  |  |  |
